Tests used:
[1] = biological target: HRAS wild-type protein (Homo sapiens, UniProt P01112); experiment: Binding to HRAS by surface plasmon resonance (SPR), KD and KD ratio to KRAS
Outline: (§1)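 Affinity is measured by surface plasmon resonance at 30°C against captured, GDP-loaded RAS carrying a biotinylated Avi tag. Compounds are titrated by single-cycle kinetics, and KD comes from a 1:1 fit.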

[2] = system: human lung cancer strain NCI-H441; assay type: cell-based
Outline: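 Readout: […] after the ATP-based reagent. Compound: serial dilutions in dimethyl sulfoxide.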

[3] = biological target: GDP-bound NRAS wild-type protein (Homo sapiens, UniProt P01111); experiment: Binding to NRAS by surface plasmon resonance (SPR), KD and KD ratio to KRAS
Outline: as §1

[4] = ratio of KD for HRAS wild-type protein to KD for KRAS
[5] = ratio of KD for GDP-bound NRAS wild-type protein to KD for KRAS
[6] = ratio of KD value for HRAS wild-type protein to KD value for KRAS (SPR)
[7] = ratio of KD value for GDP-bound NRAS wild-type protein to KD value for KRAS (SPR)
[8] = ratio of the KD value with respect to HRAS wild-type protein to the KD value with respect to KRAS
[9] = ratio of the KD value with respect to GDP-bound NRAS wild-type protein to the KD value with respect to KRAS

Chain of HRAS wild-type protein (P01112 whole entry): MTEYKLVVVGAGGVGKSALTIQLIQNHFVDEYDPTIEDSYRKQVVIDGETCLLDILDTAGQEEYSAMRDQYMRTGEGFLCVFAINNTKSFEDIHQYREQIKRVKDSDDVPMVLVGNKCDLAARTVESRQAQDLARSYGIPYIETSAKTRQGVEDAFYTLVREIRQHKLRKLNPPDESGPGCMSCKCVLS
Chain of GDP-bound NRAS wild-type protein (P01111 whole entry): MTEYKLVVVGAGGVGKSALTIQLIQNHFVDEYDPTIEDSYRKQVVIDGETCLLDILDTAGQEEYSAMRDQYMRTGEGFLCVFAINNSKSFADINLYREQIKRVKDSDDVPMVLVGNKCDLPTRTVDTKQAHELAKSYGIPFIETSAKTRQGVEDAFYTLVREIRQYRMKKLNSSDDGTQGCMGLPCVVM

| IC50 [2] [nM] | SMILES | HRAS /KRAS [1, 4] | NRAS /KRAS [3, 5] | HRAS /KRAS [1, 6] | NRAS /KRAS [3, 7] | HRAS /KRAS [1, 8] | NRAS /KRAS [3, 9] |
| --- | --- | --- | --- | --- | --- | --- | --- |
| 185 | CCO[C@@H]1C[C@H]2C(=O)NC3(CCC3)C(=O)N(C)[C@@H](C3CCCC3)C(=O)N(C)[C@H](C(=O)N(C)C)CC(=O)N(C)[C@@H](COC)C(=O)N[C@@H]([C@@H](C)CC)C(=O)N3CC[C@H]3C(=O)N(C)[C@H]3CCCCCN(C3=O)[C@@H](Cc3ccc(C(F)(F)F)cc3)C(=O)N(C)CC(=O)N[C@@H](CCc3cc(F)c(C(F)(F)F)c(F)c3)C(=O)N2C1 [PP0864] | B (a compound having 3 or more and less than 10 is denoted as B) | B (a compound having 3 or more and less than 10 is denoted as B) | – | – | – | – |
| 1.6 | CCO[C@@H]1C[C@H]2C(=O)NC3(CC(C)(C)C3)C(=O)N(C)[C@@H](C3CCCC3)C(=O)N(C)[C@H](C(=O)N(C)CC)CC(=O)N(C)[C@@H](CC)C(=O)N[C@@H]([C@@H](C)CC)C(=O)N(C)CC(=O)N(C)[C@H]3C/C=C\CCN(C3=O)[C@@H](Cc3ccc(C(F)(F)F)cc3)C(=O)N(C)CC(=O)N[C@@H](CCc3ccc(C(F)(F)F)c(OC)c3)C(=O)N2C1 [PP1653] | – | – | A (a compound having 10 or more and less than 20 is denoted as A) | A (a compound having 10 or more and less than 20 is denoted as A) | – | – |
| 8.3 | CC(C)C[C@H]1C(=O)N[C@@H](C2CCC2)C(=O)N(C)CC(=O)N(C)[C@H]2CCCCN(C2=O)[C@@H](Cc2ccc(C(F)(F)F)cc2)C(=O)N(C)CC(=O)N[C@@H](CCc2cc(F)c(C(F)(F)F)c(F)c2)C(=O)N2CCC[C@H]2C(=O)NC2(CCCC2)C(=O)N(C)[C@@H](C2CCCC2)C(=O)N(C)[C@H](C(=O)N2CCOCC2)CC(=O)N1C [PP0596] | – | – | – | – | B (a compound having 3 or more and less than 10 is denoted as B) | B (a compound having 3 or more and less than 10 is denoted as B) |
| 10.2 | CCO[C@@H]1C[C@H]2C(=O)NC3(CCC3)C(=O)N(C)[C@@H](C3CCCC3)C(=O)N3CCC[C@@H]3CC(=O)N(C)[C@@H](CC)C(=O)N[C@@H]([C@@H](C)CC)C(=O)N(C)CC(=O)N(C)[C@H]3C/C=C\CCN(C3=O)[C@@H](Cc3ccc(C(F)(F)F)cc3)C(=O)N(C)CC(=O)N[C@@H](CCc3cc(F)c(C(F)(F)F)c(F)c3)C(=O)N2C1 [PP1097] | B (a compound having 3 or more and less than 10 is denoted as B) | B (a compound having 3 or more and less than 10 is denoted as B) | – | – | – | – |
| 647 | CC[C@H](C)[C@@H]1NC(=O)[C@H](CC(C)C)N(C)C(=O)C[C@@H](C(=O)N2CCOCC2)N(C)C(=O)[C@H](C2CCCC2)N(C)C(=O)C2(CCCC2)NC(=O)[C@@H]2CCCN2C(=O)[C@H](CCc2cc(F)c(C(F)(F)F)c(F)c2)NC(=O)CN(C)C(=O)[C@H](Cc2ccc(C(F)(F)F)cc2)N2CCCC[C@@H](C2=O)N(C)C(=O)[C@H](C)N(C)C1=O [PP0544] | – | – | – | – | B (a compound having 3 or more and less than 10 is denoted as B) | B (a compound having 3 or more and less than 10 is denoted as B) |
| 25.8 | CCC[C@H]1C(=O)N[C@@H](C(CC)CC)C(=O)N(C)CC(=O)N(C)[C@H]2C/C=C\CCN(C2=O)[C@@H](Cc2ccc(C)cc2)C(=O)N(C)CC(=O)N[C@@H](CCc2ccc(C(F)(F)F)c(Cl)c2)C(=O)N2C[C@H](OCC)C[C@H]2C(=O)NC2(CC(C)(C)C2)C(=O)N(C)[C@@H](CC(C)(C)C)C(=O)N(C)[C@H](C(=O)N(C)C)CC(=O)N1C [PP2207] | – | – | – | – | A (a compound having 10 or more and less than 20 is denoted as A) | A (a compound having 10 or more and less than 20 is denoted as A) |
| 3.8 | CC[C@H](C)[C@@H]1NC(=O)[C@H](CC(F)F)N(C)C(=O)C[C@@H](C(=O)N(C)C)N(C)C(=O)[C@H](C2CCCC2)N(C)C(=O)C2(CC(C)(C)C2)NC(=O)[C@@H]2CC(F)(F)CN2C(=O)[C@H](CCc2cc(F)c(C(F)(F)F)c(F)c2)NC(=O)CN(C)C(=O)[C@H](Cc2ccc(C(F)(F)F)cc2)N2CC/C=C\C[C@@H](C2=O)N(C)C(=O)CN(C)C1=O [PP1709] | – | – | A (a compound having 10 or more and less than 20 is denoted as A) | A (a compound having 10 or more and less than 20 is denoted as A) | – | – |
| 1180 | CCO[C@@H]1C[C@H]2C(=O)NC3(CCC3)C(=O)N(C)[C@@H](C3CCCC3)C(=O)N(CCC3CCCC3)[C@H](C(=O)N(C)C)CC(=O)N(C)[C@@H](CC(C)C)C(=O)N[C@@H]([C@@H](C)CC)C(=O)N(C)CC(=O)N(C)[C@H]3CCCCCN(C3=O)[C@@H](Cc3ccc(F)cc3)C(=O)N(C)CC(=O)N[C@@H](CCc3ccc(C(F)(F)F)c(Cl)c3)C(=O)N2C1 [PP0976] | B (a compound having 3 or more and less than 10 is denoted as B) | B (a compound having 3 or more and less than 10 is denoted as B) | – | – | – | – |
| 44.9 | CCC[C@H]1C(=O)N[C@@H]([C@@H](C)CC)C(=O)N2CCC[C@H]2C(=O)N(C)[C@H]2C/C=C\CCN(C2=O)[C@@H](CC2CCCCC2)C(=O)N(C)CC(=O)N[C@@H](CCc2ccc(C(F)(F)F)c(OC)c2)C(=O)N2C[C@H](OCC)C[C@H]2C(=O)N(C)C2(CCC2)C(=O)N(C)[C@@H](C2CCCC2)C(=O)N(C)[C@H](C(=O)N(C)C)CC(=O)N1C [PP2344] | – | – | – | – | A (a compound having 10 or more and less than 20 is denoted as A) | A (a compound having 10 or more and less than 20 is denoted as A) |
| 3.4 | CCO[C@@H]1C[C@H]2C(=O)NC3(CC(C)(C)C3)C(=O)N(C)[C@@H](C3CCCC3)C(=O)N(C)[C@H](C(=O)N3CCCC3)CC(=O)N(C)[C@H]3CCCCCc4ccc(cc4)C[C@@H](C(=O)N(C)CC(=O)N[C@@H](CCc4ccc(C(F)(F)F)c(OC)c4)C(=O)N2C1)N1CC/C=C\C[C@@H](C1=O)N(C)C(=O)CN(C)C(=O)[C@H]([C@@H](C)CC)NC3=O [PP3037] | B (a compound having 3 or more and less than 10 is denoted as B) | A (a compound having 10 or more and less than 20 is denoted as A) | – | – | – | – |
| 8 | CCCN(C)C(=O)[C@@H]1CC(=O)N(C)[C@@H](CC2CCC2)C(=O)N[C@@H]([C@@H](C)CC)C(=O)N(C)CC(=O)N(C)[C@H]2C/C=C\CCN(C2=O)[C@@H](Cc2ccc(C(F)(F)F)cc2)C(=O)N(C)CC(=O)N[C@@H](CCc2cc(F)c(C(F)(F)F)c(F)c2)C(=O)N2C[C@H](OCC)C[C@H]2C(=O)NC2(CCC2)C(=O)N(C)[C@@H](C2CCCC2)C(=O)N1C [PP1705] | – | – | A (a compound having 10 or more and less than 20 is denoted as A) | AA (a compound having 20 or more is denoted as AA) | – | – |
| 3.8 | CCO[C@@H]1C[C@H]2C(=O)NC3(CCC3)C(=O)N(C)[C@@H](C3CCCC3)C(=O)N(C)[C@H](C(=O)N(C)C)CC(=O)N(C)[C@H]3CCCCCc4ccc(cc4)C[C@@H](C(=O)N(C)CC(=O)N[C@@H](CCc4ccc(C(F)(F)F)c(OC)c4)C(=O)N2C1)N1CC/C=C\C[C@@H](C1=O)N(C)C(=O)CN(C)C(=O)[C@H]([C@@H](C)CC)NC3=O [PP2262] | – | – | – | – | B (a compound having 3 or more and less than 10 is denoted as B) | A (a compound having 10 or more and less than 20 is denoted as A) |
| 1.9 | CC[C@H](C)[C@@H]1NC(=O)[C@@H]2CCCCCc3ccc(cc3)C[C@@H](C(=O)N(C)CC(=O)N[C@@H](CCc3ccc(C(F)(F)F)c(OC)c3)C(=O)N3C[C@H](OC4CCC4)C[C@H]3C(=O)NC3(CC(C)(C)C3)C(=O)N(C)[C@@H](C3CCCC3)C(=O)N(C)[C@H](C(=O)N(C)C)CC(=O)N2C)N2CC/C=C\C[C@@H](C2=O)N(C)C(=O)CN(C)C1=O [PP3073] | A (a compound having 10 or more and less than 20 is denoted as A) | A (a compound having 10 or more and less than 20 is denoted as A) | – | – | – | – |
| 8.1 | CCO[C@@H]1C[C@H]2C(=O)NC3(CCC3)C(=O)N(C)[C@@H](C3CCCC3)C(=O)N(C)[C@H](C(=O)N(C)CC)CC(=O)N(C)[C@H]3CCCCCc4ccc(cc4)C[C@@H](C(=O)N(C)CC(=O)N[C@@H](CCc4ccc(C(F)(F)F)c(OC)c4)C(=O)N2C1)N1CC/C=C\C[C@@H](C1=O)N(C)C(=O)CN(C)C(=O)[C@H]([C@@H](C)CC)NC3=O [PP2118] | – | – | – | – | B (a compound having 3 or more and less than 10 is denoted as B) | A (a compound having 10 or more and less than 20 is denoted as A) |
| 952 | CCO[C@@H]1C[C@H]2C(=O)NC3(CCC3)C(=O)N(C)[C@@H](C3CCCC3)C(=O)N(CCc3ccccc3)[C@H](C(=O)N(C)C)CC(=O)N(C)[C@@H](CC)C(=O)N[C@@H]([C@@H](C)CC)C(=O)N(C)CC(=O)N(C)[C@H]3CCCCCN(C3=O)[C@@H](Cc3ccc(C(F)(F)F)cc3)C(=O)N(C)CC(=O)N[C@@H](CCc3cc(F)c(C(F)(F)F)c(F)c3)C(=O)N2C1 [PP0637] | – | – | – | – | B (a compound having 3 or more and less than 10 is denoted as B) | B (a compound having 3 or more and less than 10 is denoted as B) |

| SMILES | IC50 [2] [nM] | HRAS /KRAS [1, 4] | NRAS /KRAS [3, 5] | HRAS /KRAS [1, 6] | NRAS /KRAS [3, 7] | HRAS /KRAS [1, 8] | NRAS /KRAS [3, 9] |
| --- | --- | --- | --- | --- | --- | --- | --- |
| CCC[C@H]1C(=O)N[C@@H]([C@@H](C)CC)C(=O)N(C2CC2)CC(=O)N(C)[C@H]2C/C=C\CCN(C2=O)[C@@H](Cc2ccc(C)cc2)C(=O)N(C)CC(=O)N[C@@H](CCc2cc(F)c(C(F)(F)F)c(F)c2)C(=O)N2C[C@H](OCC)C[C@H]2C(=O)N(C)C2(CCC2)C(=O)N(C)[C@@H](C2CCCC2)C(=O)N(C)[C@H](C(=O)N2CCCCC2)CC(=O)N1C [PP3111] | 17.8 | A (a compound having 10 or more and less than 20 is denoted as A) | A (a compound having 10 or more and less than 20 is denoted as A) | – | – | – | – |

From EP4603105A1, “PHARMACEUTICAL COMPOSITION CONTAINING CYCLIC COMPOUND HAVING SELECTIVE KRAS INHIBITORY EFFECT AGAINST HRAS AND NRAS” (CHUGAI SEIYAKU KABUSHIKI KAISHA, priority 2022, dated 2024)
